According to patent publication US20260198495A1, “BINARY INSECTICIDE COMPOSITION AND USE THEREOF” (SHENYANG SINOCHEM AGROCHEMICALS R & D CO., LTD., priority 2022, published 2026):

What was measured:
Format in all cases: in vivo
[1] = tested on: 3rd-instar larvae of Spodoptera frugiperda; experiment: Joint toxicity of I-72 + spinosad, corn leaf dipping, Example 10, Table 10; conditions: Spodoptera frugiperda, foliar, 72 h, A = compound I-72, B = spinosad, read-out: LC50
Description: Test subject: 3rd-instar larvae of Spodoptera frugiperda, a sensitive strain reared indoors.
Experimental method: the dipping method was adopted. The corn leaves cultivated in the greenhouse were taken, cut into leaf segments of 5 cm long, dipped in the prepared pesticide solution for 10 s, and then cut into small pieces of 1.5 cm×1.5 cm after natural air-drying in the shade. These pieces were placed in a 24-well culture plate, and the standard test insects were introduced, with 48 insects for each treatment. The treated test insects were placed in an observation room under certain conditions. The reaction of the test insects was regularly observed, and the number of dead and live insects was investigated 72 h later.
(§1) The test conditions, the preparation of the pesticide solution and the evaluation method were the same as those in Example 1.

[2] = tested on: Bemisia tabaci (Gennadius) nymphs; experiment: Joint toxicity of I-72 + organophosphorus insecticides, cotton leaf-disk spraying, Example 18, Table 18; conditions: nymphs, cotton leaf-disk spraying, 96 h, A = compound I-72, B = acephate, read-out: LC50
Description: Test target: Bemisia tabaci (Gennadius) nymphs.
(§2) Preparation of the pesticide solution: according to different test requirements, the test samples were accurately weighed respectively with an electronic analytical balance. The technical pesticides were dissolved in acetone, and then diluted with 0.1% Tween 80 water into a series of pesticide solutions with a certain concentration gradient according to the experimental design dosage.
Experimental method: first, cotton leaves with neat and consistent Bemisia tabaci (Gennadius) nymphs were selected and made into leaf disks, with about 20 insects on each leaf disk. Then, they were evenly sprayed with the pesticide solution in the order from low dosage to high dosage according to the experimental design, with 1.5 mL for each leaf and 3 replicates for each treatment. In addition, a blank control was set up.
The treated test materials were placed in an observation room, and the temperature, humidity and illumination of the observation room could be adjusted as needed. The number of dead and live insects was investigated 96 hours later. The corrected mortality rate was calculated using the Abbott's formula, and statistical analysis was performed with the DPS data processing software to obtain the toxicity regression equation, LC50 value and 95% confidence limit of each single test pesticide and each mixture of different ratios. Then, the co-toxicity coefficient of each ratio was calculated using the Sun Y-P method to evaluate the mixing effect (the same as in Example 1).

[3] = tested on: 3rd-instar larvae of Hyphantria cunea; experiment: Joint toxicity of I-72 + organophosphorus insecticides, poplar leaf dipping, Example 20, Table 20; conditions: foliar, A = compound I-72, B = triazophos, poplar leaf dipping, 72 hours, read-out: LC50
Description: Test target: 3rd-instar larvae of Hyphantria cunea, a sensitive strain reared indoors.
Experimental method: first, fresh and tender poplar leaves were selected, cut into small sections of 5 cm, and dipped in the prepared pesticide solution for 10 s in the order from low dosage to high dosage according to the experimental design. After natural air-drying in the shade, they were placed in a 9-cm-diameter Petri dish with filter paper, and uniform and healthy test insects were introduced, with 10 insects for each treatment and 3 replicates for each treatment. In addition, a blank control was set up.

[4] = tested on: adult Tetranychus urticae Koch; experiment: Joint toxicity of I-72 + spirobudifen, Example 29, Table 29; conditions: A = compound I-72, B printed spirotetramat (title: spirobudifen), potted-seedling spraying, 72 hours, read-out: LC50
Description: as §2
In addition, a blank control was set up.
The treated test materials were placed in an observation room, and the temperature, humidity and illumination of the observation room could be adjusted as needed.

[5] = tested on: adult Phyllotreta striolata (Walker); experiment: Joint toxicity of I-72 + rotenone, insect dipping, Example 35, Table 35; conditions: A = compound I-72, B = rotenone, insect dipping 10 s, read-out: LC50
Description: Test target: adult Phyllotreta striolata (Walker), a strain reared indoors.
Experimental method: the dipping method was adopted. Adult flea beetles of uniform size were put into an insect-dipping cage and dipped for 10 s in the order from low dosage to high dosage according to the experimental design, with 30 beetles for each treatment. The beetles were placed in a 9-cm-diameter Petri dish with filter paper, with 3 replicates for each treatment. In addition, a blank control was set up. The treated test materials were placed in an observation room, and the temperature, humidity and illumination of the observation room could be adjusted as needed.
as §1

Aphis craccivora nymphs = experiment: Synergism screening (Bliss) of I-72 + pyrethroid insecticides, Example 38, Table 38; conditions: Aphis craccivora, single pesticide, broad bean seedling spraying, 48 hours, read-out: Measured mortality rate (%)
Description: Test target: Aphis craccivora nymphs, a sensitive strain reared indoors.
as §2
Experimental method: first, broad bean seedlings with uniform and consistent Aphis craccivora were selected, with about 30-40 insects on each seedling. Then, they were evenly sprayed with the pesticide solution in the order from low dosage to high dosage according to the experimental design, with 1.5 mL of the solution for each leaf and 3 replicates for each treatment. In addition, a blank control (CK) was set up.
The treated test materials were placed in an observation room, and the temperature, humidity and illumination of the observation room could be adjusted as needed. The number of dead and alive insects was investigated 48 hours later, and the corrected mortality rate was calculated using the Abbott's formula.
The synergism of the mixture was evaluated by adopting the Bliss method, as in Example 5.

[6] = tested on: 3rd-instar larvae of Ostrinia furnacalis Guenee; experiment: Joint toxicity of I-72 + lambda-cyhalothrin, Example 42, Table 42; conditions: A = compound I-72, B = lambda-cyhalothrin, corn stem dipping, 72 hours, read-out: LC50
Description: Test target: 3rd-instar larvae of Ostrinia furnacalis Guenee.
as §2
Experimental method: first, tender corn stems were selected and dipped in the prepared pesticide solution for 10 s in the order from low dosage to high dosage according to the experimental design. After natural air-drying in the shade, they were placed in a 9-cm-diameter Petri dish with filter paper, and uniform and healthy test insects were introduced, with 10 insects for each treatment and 3 replicates for each treatment. In addition, a blank control was set up.
The treated test materials were placed in an observation room, and the temperature, humidity and illumination of the observation room could be adjusted as needed. The number of dead and live insects was investigated 72 hours later. […] Then, the co-toxicity coefficient of each ratio was calculated using the Sun Y-P method to evaluate the mixing effect (the same as in Example 1).

Spodoptera exigua Hübner = experiment: Field efficacy trial of I-72 and Spodoptera exigua Hübner nucleopolyhedrovirus, Example 87, Table 87; conditions: spraying
Description: This trial was arranged in the field trial shed area of the Wuhan Vegetable Research Institute. The spraying method was adopted for pesticide application. The investigation method was to take samples at 5 points, with 2 fixed plants at each point. A total of 10 plants were investigated in each plot, and the trial was repeated four times. The population base of pests was investigated before the pesticide application, and investigations were performed 3 days and 7 days after the pesticide application. The amount of water used per mu was 30L. The calculation method for the efficacy of the test pesticides is as follows:
Test pesticides: A: Spodoptera exigua Hübner nucleopolyhedrovirus suspension with 3 billion PIBs (produced by Henan Jiyuan Baiyun Industrial Co., Ltd.); and B: compound I-72 (dissolved in acetone, 0.1% Tween 80 was added, and a 10% stock solution was prepared for use).

In the case of `CN(C(=O)c1ccc2c(c1)OC(F)(F)O2)c1cccc(C(=O)Nc2c(Br)cc(C(F)(C(F)(F)F)C(F)(F)F)cc2OC(F)F)c1F` [Compound I-72], the LC50 [1] is reported as 0.0777 µg/mL, the LC50 [2] is reported as 5.05 µg/mL and the LC50 [3] is reported as 5.74 µg/mL. It also gave an LC50 [4] of 41.6 µg/mL, an LC50 [5] of 1.81 µg/mL and a mortality at 0.1 µg/mL (Aphis craccivora nymphs; concentration 0.1 mg/L) of 11.9%. The mortality at 3 µg/mL (Aphis craccivora nymphs; concentration 3 mg/L) was 60.6%, the LC50 [6] was 0.805 µg/mL and the “Control efficacy 3 days after pesticide application” value (“Control efficacy 3 days” below) (Spodoptera exigua Hübner; dose 6 ml per mu) was 59.8%. The “Control efficacy 7 days after pesticide application” value (shortened to “Control efficacy 7 days”) (Spodoptera exigua Hübner; dose 6 ml per mu) was 71.5%, the “Control efficacy 3 days” value (Spodoptera exigua Hübner; dose 9 ml per mu) was 66.5% and the “Control efficacy 7 days” value (Spodoptera exigua Hübner; dose 9 ml per mu) was 75.2%. For the same compound, the “Control efficacy 3 days” value (Spodoptera exigua Hübner; dose 12 ml per mu) was 72.8% and the “Control efficacy 7 days” value (Spodoptera exigua Hübner; dose 12 ml per mu) was 82.4%.
